# Measured values reported in paper PMC9381947 (Antiviral Research, 2022).
# Entries after “also recorded” stand apart in the source; their conditions may differ. Where two headings read alike, the source gives them in different places.
# What was measured:
# [1] = biological target: T1, SARS-CoV-2 NSP13 helicase (Severe acute respiratory syndrome coronavirus 2, UniProt P0DTD1); assay: biochemical; settings: for NSP13 helicase inhibition relative to PUG: compared with PUG; for inhibition at 20 µM: read-out: inhibitory activity against NSP13, confirmation screen
# [2] = biological target: T1, SARS-CoV-2 NSP13 helicase; assay: Gel-based DNA unwinding assay; assay type: biochemical; settings: PUG at concentrations over 1 μM
# [3] = biological target: NSP13/DNA complex (Severe acute respiratory syndrome coronavirus 2, UniProt P0DTD1); assay: Electrophoretic mobility shift assay; assay type: biochemical, SARS-CoV-2; settings: pre-incubation of NSP13 with compound, FAM-labeled 5ˊ flap DNA
# [4] = biological target: SARS-CoV-2 NSP13 ATPase activity (Severe acute respiratory syndrome coronavirus 2, UniProt P0DTD1); assay: Luciferase-coupled ATP assay; assay type: biochemical
# [5] = biological target: SARS-CoV-2 NSP13 (Severe acute respiratory syndrome coronavirus 2, UniProt P0DTD1); assay: Surface plasmon resonance; assay type: binding; settings: SPR, NSP13 coupled to CM5 chip
# [6] = tested on: human adenovirus (HAdV) type 7 (HAdV-7); assay: Antiviral assay in A549 cells; settings: 48 h, qRT-PCR, listed as PUG
# [7] = IC50, DNA unwinding activity of NSP13, text and figures
# [8] = read-out: IC50 against NSP13 helicase activity, Table 1
# [9] = IC50 against NSP13 helicase activity, Table 1
# [10] = read-out: IC50 against NSP13 helicase activity
molecule,measurement,setting,value
"O=C1OC[C@H]2OC(O)[C@H](O)[C@@H](O)[C@@H]2OC(=O)c2cc(O)c(O)c(O)c2-c2c(O)c(O)c3oc(=O)c4c(c(O)c(O)c5oc(=O)c2c3c54)-c2c1cc(O)c(O)c2O (mixture of isomers) [PUL, punicalin]",IC50,[1]; [7],~540 nM
same,NSP13 helicase inhibition relative to PUG,[1],comparable inhibitory activity
same,helicase activity of NSP13 in gel-based DNA unwinding assay,[2],slightly weak inhibitory effect than PUG
same,NSP13/DNA complex formation (EMSA),[3],reduced the complex formation in a concentration-dependent manner
"O=c1cc(-c2ccccc2)oc2cc(O)c(O)c(O)c12 [Baicalein, reference compound]",inhibition at 20 µM,[1],> 70%
"O=C(N/N=C/c1cc(O)c(O)cc1O)c1cc2ccccc2cc1O [Dyngo-4a, reference compound]",IC50,[1]; [8],630 nM
"O=c1oc2c(O)c(O)cc3c(=O)oc4c(O)c(O)cc1c4c23 [EA, ellagic acid]",IC50,"[1]; IC50, DNA unwinding activity of NSP13, text",~2800 nM
same,NSP13 helicase inhibition relative to PUG,[1],about six times weaker
same,inhibition of ATP hydrolysis by NSP13,[4]; 10 μM ATP,much weaker inhibition
same,NSP13/DNA complex formation (EMSA),[3],reduced the complex formation in a concentration-dependent manner; also recorded: much weaker inhibition
Oc1cc(O)c2c(c1)O[C@H](c1cc(O)c(O)c(O)c1)[C@H](O)[C@H]2c1c(O)cc(O)c2c1O[C@H](c1cc(O)c(O)c(O)c1)[C@H](O)[C@H]2c1c(O)cc(O)c2c1O[C@H](c1cc(O)c(O)c(O)c1)[C@H](O)C2 [Katacine],IC50,[1]; [9],5980 nM
CC(C)[C@H](NC(=O)CCCCCN1C(=O)C=CC1=O)C(=O)N[C@@H](CCCNC(N)=O)C(=O)Nc1ccc(COC(=O)Oc2ccc([N+](=O)[O-])cc2)cc1 [MC-Val-Cit-PABC-PNP],IC50,[1]; [10],2450 nM
"O=c1c(O)c(-c2cc(O)c(O)c(O)c2)oc2cc(O)cc(O)c12 [Myricetin, reference compound]",inhibition at 20 µM,[1],> 70%
"O=C1O[C@@H]2[C@@H](OC(=O)c3cc(O)c(O)c(O)c3-c3c1cc(O)c(O)c3O)[C@H](O)O[C@@H]1COC(=O)c3cc(O)c(O)c(O)c3-c3c(O)c(O)c4oc(=O)c5c(c(O)c(O)c6oc(=O)c3c4c65)-c3c(cc(O)c(O)c3O)C(=O)O[C@@H]21 [Punicalagin, 2,3-hexahydroxydiphenoyl-gallagyl-D-glucose]",IC50,[1]; [7],427 nM
same,IC50,[1]; [9],430 nM
same,helicase activity of NSP13 in gel-based DNA unwinding assay,[2],nearly abolished
same,Kd,[5],21.6 nM
same,Km of NSP13 ATPase,[4]; with increasing concentrations of PUG,increased
same,antiviral effect against HAdV-7,[6],did not show detectable antiviral effects
CC(C)c1cc2c(c(O)c1O)[C@@]13CCCC(C)(C)[C@@H]1[C@H](OC3=O)[C@H]2O [Rosmanol],IC50,[1]; [9],8930 nM
"O=c1cc(-c2ccc(O)cc2)oc2cc(O)c(O)c(O)c12 [Scutellarein, reference compound]",inhibition at 20 µM,[1],> 70%
"O=C(O)CSc1cc(NS(=O)(=O)c2ccc(Br)cc2)c2ccccc2c1O [UMI-77, reference compound]",IC50,[1]; [10],4380 nM
O=C([O-])c1cc(=O)[nH]c(=O)[nH]1.O=C([O-])c1cc(=O)[nH]c(=O)[nH]1.[Zn+2] [Zinc Orotate],IC50,[1]; [8],4120 nM
Bismuth subsalicylat [reference compound],"inhibitory activity against NSP13, confirmation screen",[1]; 20 µM,more than 70%
Tannic acid,IC50,[1]; [8],1250 nM
